Laboratory results taken from patent publication US12172989B2, “Histone acetyltransferase (HAT) inhibitor and use thereof” (SHANGHAI INSTITUTE OF MATERIA MEDICA, CHINESE ACADEMY OF …, priority 2018, dated 2024).

Tests used:
[1] = test system: Human castration resistant prostate cancer cell line LNCaP clone FGC; experiment: Cell growth inhibition experiment (CellTiter-Glo), LNCaP clone FGC; type: cell-based; conditions: Homo sapiens, 120 h, LNCaP clone FGC cells treated with the compound for 5 days
Procedure: (§1) Human castration resistant prostate cancer cell line 22Rv1 and LNCaP clone FGC (22Rv1 cell line was from ATCC, CRL-2505, LNCaP clone FGC cell line was purchased from Cell Bank of the Chinese Academy of Sciences) were cultured with RPMI 1640 medium (Gibco, available from Life Technologies Corporation, 22400-089) containing 10% fetal bovine serum (Gibco, available from Life Technologies, 10099-141) and 1% antibiotics (penicillin and streptomycin, available from Life Technologies Corporation, 10378016) in a CO2 cell incubator (37° C., 5% CO2). In the cell growth inhibition experiment, 22Rv1 and LNCaP clone FGC cells in exponential growth phase were seeded on a 96-well plate (purchased from Corning Company, 3599) with a volume of 150 μL/well and a cell density of 1,500 cells/well. After seeded, the plate was placed in a CO2 incubator to incubate overnight to allow the cells to adhere. On the next day, 50 μL of a compound at different concentrations diluted in 3-fold gradient or DMSO were added in a 96-well plate containing the cells. The final concentration of the compound ranges from 0.3 to 10000 nM, and the final concentration of DMSO is 0.05% as control group. The cells were treated by the compound for 5 days. Cell viability was measured using CellTiter-Glo reagent (purchased from Promega, G7572): the cell treated with the compound for 5 days was added with CellTiter-Glo reagent at 40 μL/well, incubated at room temperature for 10 min, transferred to a white 96-well plate (OptiPlate-96, purchased from PerkinElmer, 605299) by 70 μL. Subsequently, the luminescence signal was detected using a multifunctional microplate reader EnVision (purchased from PerkinElmer) at a wavelength of 400-700 nm. The data was analyzed by using GraphPad Prism 5.0 software to obtain IC50.

[2] = test system: Human castration resistant prostate cancer cell line 22Rv1; experiment: Cell growth inhibition experiment (CellTiter-Glo), 22Rv1; type: cell-based; conditions: Homo sapiens, 120 h, 22Rv1 cells treated with the compound for 5 days
Procedure: as §1

[3] = biological target: T1, histone acetyltransferase p300 (Homo sapiens, UniProt Q09472); experiment: Histone acetyltransferase (p300) activity assay (radioisotope, [3H]-Ac-CoA); type: biochemical; conditions: p300 0.05 nM; histone peptide 600 nM, [3H]-Ac-CoA 250 nM; 60 min at room temperature; read-out: Inhibition rate IC50
T1 construct: purchased BPS Corporation 50071
T1 sequence (Q09472 1284-1673 limits assumed): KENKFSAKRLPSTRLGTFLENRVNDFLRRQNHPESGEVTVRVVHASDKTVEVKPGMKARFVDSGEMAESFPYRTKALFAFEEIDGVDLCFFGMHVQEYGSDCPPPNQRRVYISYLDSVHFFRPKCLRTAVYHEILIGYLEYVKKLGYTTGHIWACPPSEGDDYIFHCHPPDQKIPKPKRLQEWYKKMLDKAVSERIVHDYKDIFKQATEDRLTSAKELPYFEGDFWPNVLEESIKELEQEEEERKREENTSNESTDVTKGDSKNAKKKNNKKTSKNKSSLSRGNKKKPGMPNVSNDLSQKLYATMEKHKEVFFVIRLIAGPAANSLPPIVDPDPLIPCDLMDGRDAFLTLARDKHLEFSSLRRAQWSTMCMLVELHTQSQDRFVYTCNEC
Method in brief: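 p300 (0.05 nM final) was preincubated 15 min with compound (0.25–5000 nM final), then reacted 60 min at room temperature with histone peptide (600 nM) and [3H]-Ac-CoA (250 nM). The reaction was stopped with cold Ac-CoA, and peptide-bound radioactivity was captured on Flashplate and counted to derive IC50.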

[4] = test system: human mantle cell lymphoma (MCL) cell line MAVER-1; experiment: Cell growth inhibition experiment (CellTiter-Glo), MAVER-1; type: cell-based; conditions: Homo sapiens, Maver1, 120 h, MAVER-1 cells treated with the compound for 5 days
Procedure: The human mantle cell lymphoma (MCL) cell line MAVER-1 (from ATCC, CRL-3008) was cultured with RPMI 1640 medium (Gibco, available from Life Technologies Corporation, 22400-089) containing […] (Gibco, available from Life Technologies, 10099-141) and 1% antibiotics (penicillin and streptomycin, available from Life Technologies Corporation, 10378016) in a CO2 cell incubator (37° C., 5% CO2). In the cell growth inhibition experiment, MAVER-1 cells in exponential growth phase were seeded on a 96-well plate (purchased from Corning Company, 3599) in a volume of 100 μL/well and a cell density of 1*10E5 cells/well. After seeded, the plate was placed in a CO2 incubator to culture for 1 h. 100 μL of a compound at different concentrations diluted in 3-fold gradient or DMSO were added in a 96-well plate containing the cells. The final concentration of the compound ranges from 0.3 to 10000 nM, and the final concentration of DMSO is 0.05% as control group. The cells were treated with the compound for 5 days. Cell viability was measured using CellTiter-Glo reagent (purchased from Promega, G7572): the cells treated with the compound for 5 days was added with CellTiter-Glo reagent at 20 μL/well, incubated at room temperature for 10 min, transferred to a white 96-well plate (OptiPlate-96, purchased from PerkinElmer, 605299) by 80 μL. Subsequently, the luminescence signal was detected by using a multifunctional microplate reader EnVision (purchased from PerkinElmer) at a wavelength of 400-700 nm. The data was analyzed by using GraphPad Prism 5.0 software to obtain IC50.

| IC50 [1] [nM] | IC50 [2] [nM] | IC50 [3] [nM] | IC50 [4] [nM] | Compound |
| --- | --- | --- | --- | --- |
| 6 | 5 | 0.67 | 6 | CNC(=O)Nc1ccc2c(c1)CC[C@@]21OC(=O)N(CC(=O)N2Cc3ccccc3CC[C@H]2C2CC2)C1=O [SYY-B018-2] |
| 14 | 23 | 3.1 | 13 | CNC(=O)Nc1ccc2c(c1)CC[C@@]21OC(=O)N(CC(=O)N2Cc3ccccc3CC[C@H]2C(F)(F)F)C1=O [SYY-B027-2] |
| 66 | 23 | 1.9 | 18 | CNC(=O)Nc1ccc2c(c1)CC[C@@]21OC(=O)N(CC(=O)N2Cc3ccc(F)cc3CC[C@H]2C(F)(F)F)C1=O [SYY-B031-2] |
| 73 | 88 | 3.3 | 49 | CNC(=O)Nc1ccc2c(c1)CC[C@]21OC(=O)N(CC(=O)N2Cc3ccccc3CC[C@H]2C2CC2)C1=O [SYY-B018-1] |
